# From patent US8927579B2, “Male contraceptive” (priority 2007, dated 2015)
# Structures can show the parent of a compound that is named as a salt.
# What was measured:
# [1] = tested on: sperm emission in patients; settings: cited from earlier work
# [2] = tested on: circular muscle of human vas deferens; assay: New molecules against contractions to high K+ (120 mM), circular muscle; settings: contractions evoked by K+ (120 mM), preliminary data, mean, n=2-3, read-out: Functional inhibitory potencies (IC50 values), Circular muscle
# Description: (§1) Human vas deferens specimens were obtained after elective vasectomies of healthy fertile men. College ethical approval and the consent of patients were obtained. The specimens were placed in ice-cold Krebs' medium, dissected-free of connective tissue/blood vessels and cut longitudinally into strips (longitudinal muscle preparations; 5-8 mm long & 1 mm wide) or transversely into rings (circular muscle preparations; ˜3 mm in length). The longitudinal and circular muscle preparations were then set up for tension recording (resting tension 5-7 mN) in a Perspex chamber superfused at 2 ml per min with Krebs' medium (36° C.) composed of (mM): NaCl, 118.8; NaHCO3, 25; KCl, 4.7; CaCl2.2H2O, 2.5; KH2PO4, 1.2; MgSO4.7H2O, 1.2; glucose, 11.1; ascorbic acid 0.1 and continuously gassed with 95% O2 and 5% CO2. Contractile responses were recorded via a Harvard type force-displacement transducer. The analog signals were digitised using CIO-Das 16/Jr data acquisition software (Amplicon Liveline, Brighton, UK) and re-plotted on a microcomputer.
# (§2) Tissues were equilibrated for 180 min in Krebs' medium containing inhibitors of extraneuronal and neuronal reuptake of noradrenaline, oestradiol (1 μM) and desipramine (0.1 μM) respectively, inhibitors of catechol-O-methyltransferase and monoamine oxidase, tropolone (10 μM) and iproniazid (10 μM) respectively and the β-adrenoceptor blocker, propranolol (1 μM). At the end of the equilibration period, the tissues were stimulated with noradrenaline (100 μM). […] After 40-45 min in this medium the tissues were stimulated with high [K^+]O (120 mM, Initial response). This was followed by exposure to cumulative concentrations of the new molecules {NIBA(1)XC1, NIBA(14)XN10, NIBA(6)XN3, NIBA(2)XC2, NIBA(53)XN16} or to Krebs' medium containing drug vehicles (time-matched controls). After contact times of 40-60 min at each drug concentration, the tissues were stimulated with high [K^+]o (120 mM). The resulting contractions were measured using computer software developed in-house to measure the total response (i.e. rhythmic activity plus tonic contraction). Contractions obtained in the presence of the new drug molecules were expressed as a percentage of the initial contraction evoked by high [K^+]o (120 mM) before exposure to the drugs.
# [3] = tested on: longitudinal muscle of human vas deferens; assay: New molecules against contractions to high K+ (120 mM), longitudinal muscle; settings: for IC50: Homo sapiens, contractions evoked by K+ (120 mM), preliminary data, mean, n=2-3, read-out: Functional inhibitory potencies (IC50 values), Longitudinal muscle; for relative effectiveness against longitudinal and circular muscle contractions: contractions evoked by high [K+]o; for Selectivity [(C/L)-1]: longitudinal muscle selectivity from IC50 values in circular and longitudinal muscle, K+ (120 mM)
# Description: as §1, §2
# [4] = tested on: longitudinal muscle of human vas deferens; assay: IC50 against contractions evoked by high K+ (120 mM) in the presence of FPL 64176, longitudinal muscle strips; settings: contractions evoked by K+ (120 mM) in the presence of FPL 64176 (1 μM), means ± S.E.M.
# Description: as §1, with “5-10” for “5-8”, “3” for “˜3”, “Harvard-type” for “Harvard type”
# (§3) Tissues were equilibrated for 180 min in Krebs' medium containing inhibitors of extraneuronal and neuronal reuptake of noradrenaline, oestradiol (1 μM) and desipramine (0.1 μM) respectively, inhibitors of catechol-O-methyltransferase and monoamine oxidase, tropolone (10 μM) and iproniazid (10 μM) respectively and the β-adrenoceptor blocker, propranolol (1 μM). At the end of the equilibration period, the tissues were stimulated with noradrenaline (100 μM). […] After a contact time of 30-40 min in this medium, different experimental protocols (described below) were adopted in order to • (a) Elucidate the contractile actions of L-type Ca^2+ agonists such as FPL 64176 or Bay K 8644. In these experiments, tissues were exposed to FPL 64176 (0.1-10 μM added cumulatively) or in separate experiments Bay K 8644 (0.1-10 μM added cumulatively). • (b) Investigate the effects of various diphenylalkylamines and conventional L-type Ca^2+ antagonists (methoxyverapamil or nifedipine) on contractions evoked by high concentrations of extracellular potassium (high [K^+]o) in the presence of L-type Ca^2+ agonists, FPL 64176 (1 μM) or Bay K 8644 (1 μM). In this protocol, tissues were stimulated with high [K^+]O (10, 30 and 120 mM at 10-15 min intervals) in normal Krebs' medium, then exposed to L-type Ca^2+ agonists for 20-30 min and subsequently stimulated with high [K^+]O (10, 30 and 120 mM) in the presence of the drugs. These provided the initial responses. Following this and in the continuous presence of the L-type Ca^2+ agonists, the tissues were exposed additionally to L-type Ca^2+ antagonists (conventional or diphenylalkylamines) or drug-free vehicle medium. After contact times of 25-50 min the tissues were stimulated, first with high [K^+]O (either 30 mM or 120 mM) in order to take account of the well-documented use-dependent action of the diphenylalkylamine Ca^2+ antagonists. Following recovery from the test contraction and after a further 30-40 min, the tissues were then stimulated with high [K^+]o (10, 30 and 120 mM). This protocol is illustrated in FIGS. 3 and 4. The resulting contractions were measured (see below) and expressed as a percentage of corresponding initial responses to high [K^+]o evoked in the presence of L-type Ca^2+ agonists (i.e. before exposure to L-type Ca^2+ antagonists). […] Subsequent analysis (see below) was between contractions of drug-treated tissues and time-matched controls • (c) Determine the inhibitory potencies (IC50 values) of various diphenylalkylamines and phenothiazines and conventional L-type Ca^2+ antagonists (nifedipine and methoxyverapamil) against contractions evoked in longitudinal and circular muscle of human vas deferens by high [K^+]o (120 mM) in the presence of FPL 64176. In these experiments, tissues were stimulated with high [K^+]o (120 mM); sequentially in normal Krebs' medium and after 25-30 min exposure to the L-type Ca^2+ agonist, FPL 64176, (1 μM, Initial response). […]
# [5] = tested on: circular muscle of human vas deferens; assay: IC50 against contractions evoked by high K+ (120 mM) in the presence of FPL 64176, circular muscle rings; settings: contractions evoked by K+ (120 mM) in the presence of FPL 64176 (1 μM), means ± S.E.M.
# Description: as §1, with “5-10” for “5-8”, “3” for “˜3”, “Harvard-type” for “Harvard type”
# as §3
# [6] = tested on: circular muscle of human vas deferens; assay: Contractile actions of L-type Ca2+ agonists, circular muscle; settings: for contractions on second exposure to [K+]o, percentage of corresponding initial responses, circular muscle: [K+]o 30 mM & 120 mM in the continuous presence of agonist 1.0 μM; for response of circular muscle to higher concentration of L-type Ca2+ agonist: agonist 10 μM; for response of circular muscle to brief exposure to L-type Ca2+ agonist: agonist 0.1-3 μM
# Description: as §1, with “5-10” for “5-8”, “3” for “˜3”, “Harvard-type” for “Harvard type”
# as §3
# [7] = tested on: longitudinal muscle of human vas deferens; assay: Contractile actions of L-type Ca2+ agonists, longitudinal muscle; settings: for contractions on second exposure to [K+]o, percentage of corresponding initial responses, longitudinal muscle: [K+]o 30 mM & 120 mM in the continuous presence of agonist 1.0 μM; for response of longitudinal muscle to higher concentration of L-type Ca2+ agonist: agonist 10 μM; for response of longitudinal muscle to brief exposure to L-type Ca2+ agonist: agonist 0.1-3 μM
# Description: as §1, with “5-10” for “5-8”, “3” for “˜3”, “Harvard-type” for “Harvard type”
# as §3
smiles,measurement,setting,value
"CSc1ccc2c(c1)N(CCC1CCCCN1C)c1ccccc1S2 (stereo not drawn) [Thioridazine, thioridazine hydrochloride]",time to inhibition of sperm emission after drug administration,[1]; even at sub therapeutic doses,≤ 24 h
CC1CCCCN1CCC(c1ccccc1)c1ccccc1 (stereo not drawn) [NIBA(2)XC2],IC50,[2],11.1 µM
same,IC50,[3],3 µM
same,relative effectiveness against longitudinal and circular muscle contractions,[3],more effective against longitudinal than circular muscle contractions
same,Selectivity [(C/L)-1],[3],2.69
"CN(C)CCCN1c2ccccc2Sc2ccc(Cl)cc21 [Chlorpromazine, chlorpromazine hydrochloride]",IC50,[4]; Homo sapiens,12.4 ± 2.9 µM
same,IC50,[5]; Homo sapiens,18.3 ± 6 µM
COC(=O)C1=C(C)NC(C)=C([N+](=O)[O-])[C@H]1c1ccccc1C(F)(F)F [Bay K 8644],"contractions on second exposure to [K+]o, percentage of corresponding initial responses, circular muscle",[6],86-92%
same,response of circular muscle to higher concentration of L-type Ca2+ agonist,[6],rhythmic contractility
same,response of circular muscle to brief exposure to L-type Ca2+ agonist,[6],unresponsive
same,"contractions on second exposure to [K+]o, percentage of corresponding initial responses, longitudinal muscle",[7],~92%
same,response of longitudinal muscle to higher concentration of L-type Ca2+ agonist,[7],rhythmic contractility
same,response of longitudinal muscle to brief exposure to L-type Ca2+ agonist,[7],unresponsive
CN1CCCCC1CNCCC(c1ccccc1)c1ccccc1 (stereo not drawn) [NIBA(1)XC1],IC50,[2],24.2 µM
same,IC50,[3],3.02 µM
same,relative effectiveness against longitudinal and circular muscle contractions,[3],more effective against longitudinal than circular muscle contractions
same,Selectivity [(C/L)-1],[3],7.01
"CC(COc1ccccc1)N(CCCl)Cc1ccccc1 (stereo not drawn) [PBZ, phenoxybenzamine]",effect on sperm emission (contraceptive side effect),[1]; clinical studies,reversibly inhibit sperm emission
same,"effects on libido, erection, orgasmic sensation, blood pressure, hormonal balance",[1]; clinical studies,"without effects on libido, penile erection, orgasmic sensation and more importantly blood pressure or hormonal balance"
"CN1CCCCC1CCN1c2ccccc2Sc2ccc(S(C)(=O)=O)cc21 (stereo not drawn) [Sulphoridazine, sulphoridazine]",IC50,[4],15.9 ± 2.9 µM
same,IC50,[5],14.1 ± 4.9 µM
"COC(=O)c1c(C)[nH]c(C)c1C(=O)c1ccccc1Cc1ccccc1 [FPL 64176, 2,5-dimethyl-4-[2-(phenylmethyl)benzoyl]-H-pyrrole-3-carboxylic acid methyl ester]","contractions on second exposure to [K+]o, percentage of corresponding initial responses, circular muscle",[6],270-300%
same,response of circular muscle to higher concentration of L-type Ca2+ agonist,[6],rhythmic contractility
same,response of circular muscle to brief exposure to L-type Ca2+ agonist,[6],quiescent
same,"contractions on second exposure to [K+]o, percentage of corresponding initial responses, longitudinal muscle",[7],160-181%
same,response of longitudinal muscle to higher concentration of L-type Ca2+ agonist,[7],rhythmic contractility
same,response of longitudinal muscle to brief exposure to L-type Ca2+ agonist,[7],quiescent
